Tests used:
HCT116 cells = assay: HCT116 proliferation (WST-1 assay); format: cell-based, human; conditions: for inhibition of HCT116 cell proliferation: 50 and 100 µM, 72 h; for IC50: Homo sapiens, HCT-116, 72 h
Protocol: WST-1 assay was used to determine the effect of these compounds on HCT116 proliferation. Cells were plated in 96-well plate in triplicates (5000 cells per well) for 24 h and treated with 50 and 100 µM of the different compounds for 72 h. […] Culture medium without or with 10% FBS alone was used as basal and maximal proliferation, respectively. Results were expressed as percentage of cells incubated with 10% FBS alone.
Densitometric analyses were performed using ImageJ software (NIH, MA, USA). The ratio of the different analyzed bands to β-actin was determined and data are represented as fold change compared to the LPS-treated cells. Percentage of viable cells for proliferation assay was determined as percentage to control (non-treated cells). For TUNEL assay, apoptotic cells were quantified, and results were expressed as percentage to positive cells (cleaved DNA) compared to control (non-treated cells). Statistical analysis was performed using one-way ANOVA, followed by Dunnett’s multiple comparisons test using GraphPad Prism software. Differences were considered significant when p < 0.05.

Bcl-2 = Bcl-2 protein expression in HCT116 (Western blot); format: cell-based, human; conditions: 10, 25 and 50 µM, 72 h
Protocol: (§1) Macrophages were incubated with the compounds for 30 min prior to the addition of 10 ng/mL LPS for 24 h. Protein levels for COX-2 and NOS2 were detected in LPS-stimulated macrophages. As previously described, 10 µg of total protein was assessed. The primary antibodies were developed and characterized as previously described: for COX-2, mouse monoclonal antibody anti-COX-2 (clone COX-214, 1/5000); for NOS2, rabbit polyclonal antibody anti-NOS2 (dilution1/2000 [33]). Antibodies anti-phospho-NF-κB (3033S), phospho-IκBα (9246S), and total IκBα (4814S) were from Cell Signaling Technologies (Danvers, MA, USA). Total NF-κB C-20 (sc-372) was from Santa Cruz Biotechnologies (Dallas, TX, USA), and mouse β-actin (dilution 1/10,000) (Sigma-Aldrich, A5441). Clarity™ western ECL substrate (Bio-Rad Laboratories 10-5061) was used according to the manufacturer’s instructions to reveal positive bands visualized using Bio-Rad ChemiDoc. For Bcl-2 and cleaved PARP-1, HCT116 cells were plated in 6-well plates (200,000 cells per well) for 24 h, and treated with compounds 1 and 2 at 10, 25, and 50 µM for 72 h. Supernatants and cells were collected and lysed using RIPA lysis buffer containing inhibitors of protease. […]

PARP-1 = assay: Cleaved PARP-1 protein in HCT116 (Western blot); format: cell-based, human; conditions: 10, 25 and 50 µM, 72 h
Protocol: as §1

[1] = Toxicity on macrophages (BMDM), WST-1 assay; format: cell-based, C57BL/6J mice; conditions: C57BL/6J, mouse, bone marrow-derived macrophages (BMDM), read-out: macrophage viability
Protocol: WST-1 assay (Sigma-Aldrich, 5015944001) was used to determine the toxicity of the synthesized compounds on BMDM and HCT116 (ATCC, CCL-247), kindly provided by Dr. Nadine Darwiche, Department of Biochemistry and Molecular Genetics, American University of Beirut, Lebanon. Briefly, macrophages (50,000 cells per well) and HCT116 (20,000 cells per well) were plated in a 96-well plate in RPMI 1640 culture medium containing 10% fetal bovine serum (FBS) and grown for 24 h. Cells (in triplicates) were treated with 10 or 50 μM of the compounds for macrophages, and 50 or 100 μM for HCT116. Culture medium without cells and cells without treatment were used as basal and maximal activity, respectively. Results were expressed as percentage of cells without treatment.
F i g u re S1: E ff e c t of fluorin at ed benzofuran derivatives on m acrophages
viabilit y. C ells in cub at ed with 10 and 50 μM of benzofuran d eri vativ es
(compounds 1 to 9) bel onging to groups І, II, III and IV for 24 hours. Cell
viabilit y w as det ermin ed by WST-1 assay. Non-t r eated m acrophages wer e used
as cont rol. Results were shown as mean ± SEM (n=3) . *p< 0.05 comp ar ed to the
vehicle –treated cells (basal), one-way ANOVA followed by Dunnett’s test.
(1 picture or pasted object on this page, not shown here)

IC50 (HCT116 cells) [µM]	SMILES	inhibition of HCT116 cell proliferation (HCT116 cells)	expression of antiapoptotic protein Bcl-2 (Bcl-2)	protein level of cleaved PARP-1 (PARP-1)	viability at 24 h, 50 µM [1] [%]
24.8	O=C(O)/C=C1/Oc2ccc(Br)cc2C1(F)F [Compound 2]	more than 50%	decreased	increase	
19.5	COC(=O)/C=C1/Oc2ccc(Br)cc2C1(F)F [Compound 1]	more than 50%	decreased	increase	50

From PMC10299677, “Fluorinated Benzofuran and Dihydrobenzofuran as Anti-Inflammatory and Potential Anticancer Agents” (International Journal of Molecular Sciences, 2023)
